target: PARP1 (Homo sapiens, UniProt P09874); test: PARP1 biochemical DELFIA assay (auto-PARylation); conditions: Table 1A
Sequence (P09874 whole entry): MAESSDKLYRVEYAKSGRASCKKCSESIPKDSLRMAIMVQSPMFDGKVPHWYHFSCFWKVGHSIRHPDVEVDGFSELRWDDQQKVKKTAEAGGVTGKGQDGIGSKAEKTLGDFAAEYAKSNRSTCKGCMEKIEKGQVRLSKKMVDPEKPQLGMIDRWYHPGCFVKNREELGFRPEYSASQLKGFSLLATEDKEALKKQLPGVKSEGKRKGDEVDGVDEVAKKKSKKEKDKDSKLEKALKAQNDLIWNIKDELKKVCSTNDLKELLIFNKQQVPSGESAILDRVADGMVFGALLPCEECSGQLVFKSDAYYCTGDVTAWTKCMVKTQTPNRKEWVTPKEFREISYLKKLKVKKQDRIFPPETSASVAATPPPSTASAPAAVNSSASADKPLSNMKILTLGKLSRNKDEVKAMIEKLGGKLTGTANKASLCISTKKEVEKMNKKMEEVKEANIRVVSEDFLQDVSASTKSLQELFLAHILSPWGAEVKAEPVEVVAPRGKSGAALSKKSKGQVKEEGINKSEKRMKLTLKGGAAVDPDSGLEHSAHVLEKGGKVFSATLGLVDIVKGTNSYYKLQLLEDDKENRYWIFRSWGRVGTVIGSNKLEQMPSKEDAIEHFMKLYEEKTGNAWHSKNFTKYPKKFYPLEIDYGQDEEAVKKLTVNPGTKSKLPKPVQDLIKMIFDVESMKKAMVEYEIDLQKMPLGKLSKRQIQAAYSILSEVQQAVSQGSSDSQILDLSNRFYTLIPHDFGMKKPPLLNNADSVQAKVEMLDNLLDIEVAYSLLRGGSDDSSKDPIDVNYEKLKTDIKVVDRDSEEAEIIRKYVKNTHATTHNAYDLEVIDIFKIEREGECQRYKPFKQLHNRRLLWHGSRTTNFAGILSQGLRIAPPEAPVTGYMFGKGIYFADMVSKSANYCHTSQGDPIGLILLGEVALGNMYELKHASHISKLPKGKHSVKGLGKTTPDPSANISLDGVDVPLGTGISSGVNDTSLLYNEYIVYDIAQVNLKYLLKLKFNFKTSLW

| IC50 [nM] | SMILES |
| --- | --- |
| 1000 to 10000 | O=C(CN1CCCC1c1c[nH]c(=O)c(C(F)(F)F)n1)N1CCN(c2ncc(C(F)(F)F)cn2)CC1 (single isomer, unassigned) [Compound 84b, 5-(1-(2-oxo-2-(4-(5-(trifluoromethyl)pyrimidin-2-yl)piperazin-1-yl)ethyl)pyrrolidin-2-yl)-3-(trifluoromethyl)pyrazin-2(1H)-one] |
| 10 to 100 | CC1(C)CC(c2cc(C(F)(F)F)c(=O)[nH]n2)CN(CCC(=O)N2CCN(c3ncc(C(F)(F)F)cn3)CC2)C1 (single isomer, unassigned) [Compound 87b] |
| 100 to 1000 | O=C(CN1CCOCC1c1cc(C(F)(F)F)c(=O)[nH]n1)N1CCN(c2ncc(C(F)(F)F)cn2)CC1 (single isomer, unassigned) [Compound 88b] |
| 1000 to 10000 | CNC(=O)c1ccc(N2CCN(C(=O)CN3CCOCC3c3cc(C(F)(F)F)c(=O)[nH]n3)CC2)cn1 (single isomer, unassigned) [Compound 90b] |
| 1000 to 10000 | Cn1c(N2CCN(C(=O)CN3CCCC3c3cc(C(F)(F)F)c(=O)[nH]n3)CC2)nc2ccccc21 (single isomer, unassigned) [Compound 97b] |
| 100 to 1000 | N#Cc1cc(C2CCCN2CC(=O)N2CCN(c3ncc(C(F)(F)F)cn3)CC2)n[nH]c1=O (single isomer, unassigned) [Compound 98a, 3-oxo-6-(1-(2-oxo-2-(4-(5-(trifluoromethyl)pyrimidin-2-yl)piperazin-1-yl)ethyl)pyrrolidin-2-yl)-2,3-dihydropyridazine-4-carbonitrile] |

Second part, the molecule before the results:

| SMILES | IC50 [nM] |
| --- | --- |
| O=C(CN1CCCC1c1cc(C(F)(F)F)c(=O)[nH]n1)N1CCN(c2ncc(F)cc2F)CC1 (single isomer, unassigned) [Compound 83b] | > 10000 |
| O=C(CN1CCCC1c1c[nH]c(=O)c(C(F)(F)F)n1)N1CCN(c2ncc(C(F)(F)F)cn2)CC1 (single isomer, unassigned) [Compound 84a, 5-(1-(2-oxo-2-(4-(5-(trifluoromethyl)pyrimidin-2-yl)piperazin-1-yl)ethyl)pyrrolidin-2-yl)-3-(trifluoromethyl)pyrazin-2(1H)-one] | 1000 to 10000 |
| O=C(CN1CCCC1c1cc(C(F)(F)F)c(=O)[nH]n1)N1CCN(c2nc3ccc(Cl)cc3o2)CC1 (single isomer, unassigned) [Compound 85a] | ≤ 10 |
| O=C(CN1CCCC1c1cc(C(F)(F)F)c(=O)[nH]n1)N1CCN(c2nc3ccc(Cl)cc3o2)CC1 (single isomer, unassigned) [Compound 85b] | 1000 to 10000 |
| CC1(C)CC(c2cc(C(F)(F)F)c(=O)[nH]n2)CN(CCC(=O)N2CCN(c3ncc(C(F)(F)F)cn3)CC2)C1 (single isomer, unassigned) [Compound 87a] | 100 to 1000 |
| O=C(CN1CCOCC1c1cc(C(F)(F)F)c(=O)[nH]n1)N1CCN(c2ncc(C(F)(F)F)cn2)CC1 (single isomer, unassigned) [Compound 88a] | 100 to 1000 |
| O=C(CN1CCCC1c1cc(C(F)(F)F)c(=O)[nH]n1)N1CCN(c2nc3cc(F)ccc3o2)CC1 (single isomer, unassigned) [Compound 93b] | 1000 to 10000 |
| CC1(C)CC(c2cc(C(F)(F)F)c(=O)[nH]n2)N(CC(=O)N2CCN(c3ncc(C(F)(F)F)cn3)CC2)C1 (single isomer, unassigned) [Compound 94b] | 1000 to 10000 |
| O=C(CN1CCCC1c1cc(C(F)(F)F)c(=O)[nH]n1)N1CCN(c2nc3ccc(F)cc3o2)CC1 (single isomer, unassigned) [Compound 95b] | 1000 to 10000 |
| N#Cc1ccc2nc(N3CCN(C(=O)CN4CCCC4c4cc(C(F)(F)F)c(=O)[nH]n4)CC3)oc2c1 (single isomer, unassigned) [Compound 96a] | 100 to 1000 |
| N#Cc1ccc2nc(N3CCN(C(=O)CN4CCCC4c4cc(C(F)(F)F)c(=O)[nH]n4)CC3)oc2c1 (single isomer, unassigned) [Compound 96b] | ≤ 10 |
| Cn1c(N2CCN(C(=O)CN3CCCC3c3cc(C(F)(F)F)c(=O)[nH]n3)CC2)nc2ccccc21 (single isomer, unassigned) [Compound 97a] | 100 to 1000 |

— patent US20260193238A1, “PHARMACEUTICAL COMPOUNDS AS PARP7 AND/OR PARP1 INHIBITORS” (Duke Street Bio Limited, priority 2022, published 2026)
